The source of these data is patent US20220227745A1, “Compounds For Modulating FXR” (NANJING RUIJIE PHARMA TECH CO., LTD., priority 2019, published 2022).

One data set concerns the target T1, FXR LBD, GST (Homo sapiens, UniProt Q96RI1).
T1 construct: FXR LBD, GST; purchased Invitrogen PV4834
T1 sequence (Q96RI1 262-486 limits assumed): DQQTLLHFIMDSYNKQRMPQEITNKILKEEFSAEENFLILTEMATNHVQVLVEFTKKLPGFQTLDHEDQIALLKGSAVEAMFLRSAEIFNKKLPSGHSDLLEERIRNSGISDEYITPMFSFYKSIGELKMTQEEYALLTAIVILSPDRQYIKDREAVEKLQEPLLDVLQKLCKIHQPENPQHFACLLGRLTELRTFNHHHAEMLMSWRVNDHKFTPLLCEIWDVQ
Nature of the data set: FXR Binding Assay (TR-FRET, Fluorescein-SRC2-2 coactivator peptide). The note with it: for Emax / Pct Effect (Emax %): % Activity relative to positive control; for Emax: read-out: Pct Effect (Emax %); for EC50: TR-FRET FXR LBD coactivator recruitment. In general terms: Time-resolved FRET reads energy transfer from a long-lived donor to a nearby acceptor.

The target in data set [1] is T2, hFXR-LBD (FXR-GAL4 chimeric receptor) (Homo sapiens, UniProt Q96RI1).
T2 construct: host or cells: HEK293T
T2 sequence (Q96RI1 262-486 limits assumed): T1 sequence (Q96RI1 262-486 limits assumed)
Nature of the data set: FXR Transactivation Assay (GAL4 luciferase reporter in HEK293T cells). It counts as cell-based. As to the method:
FXR Transactivation Assay
The present compounds were tested to assess their ability to stimulate FXR transactivation activity. The hFXR-LBD, coding sequence was inserted into the pBIND expression vector (Promega, E1581) to express FXR-GAL4 binding domain chimeric receptors. This expression vector and reporter vector (pGL4.35 which carry a stably integrated GAL4 promoter driven luciferase reporter gene) were co-transfected into HEK293T host cells. Upon agonist binding to the corresponding FXR-GAL4 chimeric receptor, the chimeric receptor binds to the GAL4 binding sites and stimulates the reporter gene.
All the working stock were shake for 5 min on plate shaker (QILINBEIER). Second, all cells were cultured as ATCC recommended. HEK293T cells were assayed in exponential growth phase. Removed culture medium from the flask and rinsed cells with PBS. Added TrypLE solution to the flask and make cells detach. Next, cells were washed once with complete growth medium. Then, cells were pelleted and washed twice with PBS to remove phenol red and resuspend them in medium to a proper concentration. Only cells with viability greater than 90% were used for assays. Seeded 6×10^6 HEK293T cells into a 100 mm dish and incubated at 37° C. under 5% CO2 atmosphere for 16 h. Third, Trans-IT reagent and Opti-MEM mix by inversion and incubate 5 min at room temperature. The cell transfection was performed by mixing DNA and the reagent mixture, as well as 6 μg GAL4-FXR plasmid or 2 μg pGL4.35 luciferase plasmid, respectively. The reagent mixture was added to a 100 mm dish and incubated for 4-7 hrs at 37° C. under 5% CO2 atmosphere. Fourth, transferred 75 nl compound dilutions into 384-well assay plates (PerkinElmer) and seeded HEK293T cells at 17,000 cells/well using phenol red-free DMEM containing 5% charcoal/dextran-treated FBS. Then, cells were incubated for 16-20 h at 37° C. under 5% CO2 atmosphere. Finally, added 25 μl Steady-Glo™ Luciferase Assay Reagent into each well of 384-well assay plate, and then shake plate for 5 min protected from light on a plate shaker. Then, the luminescence value was read on Evision 2104 plate reader (PerkinElmer).
The activity ratio was calculated as follow: […]
RLU: Resulting Luminescence
RLUpositive: The average RLU for the positive controls across the plate.
RLUvehicle: The average RLU for negative controls across the plate.
EC50 was calculated by fitting % Activity values and log of compound concentrations to nonlinear regression (dose response-variable slope) with GraphPad 5.0.
X: log of compound concentration.

Another data set has as its target T3, FXR (Homo sapiens, UniProt Q96RI1).
T3 sequence (Q96RI1 1-486): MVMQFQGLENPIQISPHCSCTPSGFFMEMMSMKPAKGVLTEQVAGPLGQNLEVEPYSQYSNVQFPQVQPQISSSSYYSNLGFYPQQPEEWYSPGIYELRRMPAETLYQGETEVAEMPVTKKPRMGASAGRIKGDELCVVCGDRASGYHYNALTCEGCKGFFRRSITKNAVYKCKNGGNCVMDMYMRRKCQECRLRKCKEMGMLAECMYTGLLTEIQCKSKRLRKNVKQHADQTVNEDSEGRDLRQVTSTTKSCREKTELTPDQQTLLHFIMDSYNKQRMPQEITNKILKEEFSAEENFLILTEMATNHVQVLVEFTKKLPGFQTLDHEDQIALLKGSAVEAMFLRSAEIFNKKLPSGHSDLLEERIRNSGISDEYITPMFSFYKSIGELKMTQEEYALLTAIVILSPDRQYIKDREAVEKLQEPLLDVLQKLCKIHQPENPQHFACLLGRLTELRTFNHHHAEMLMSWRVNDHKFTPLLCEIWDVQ
The note with it: cited from earlier work.

For data set [2] the following is noted: in vivo; cited from earlier work.
For data set [3] the following is noted: cited from earlier work.
Another data set deals with other nuclear receptor. The note with it: cited from earlier work.
The conditions of data set [4]: preclinical species; cited from earlier work.
For data set [5] the following is noted: OCA treatment, clinical studies; cited from earlier work.

Broadly, the Emax is the greatest response seen or fitted, relative to the assay's reference. The EC50 is the concentration needed to bring the measured effect to its halfway point. A high value points to weaker potency.

Turning to `C[C@@H]1CN(c2ccc3c(C(=O)O)cn(C)c3c2)CCN1CCc1c(-c2c(Cl)cccc2Cl)noc1C1CC1` [Example I35, (R)-6-(4-(2-(5-cyclopropyl-3-(2,6-dichlorophenyl)isoxazol-4-yl)ethyl)-3-methylpiperazin-1-yl)-1-methyl-1H-indole-3-carboxylic Acid], on FXR LBD, GST, the Emax was 156%. In addition, the EC50 stood at 0.097 µM on FXR LBD, GST and 0.494 µM in data set [1].

Consider `Cn1cc(C(=O)O)c2ccc(C3CCN(CCc4c(-c5c(Cl)cccc5Cl)noc4C4CC4)CC3)cc21` [Example I36, 6-(1-(2-(5-cyclopropyl-3-(2,6-dichlorophenyl)isoxazol-4-yl)ethyl)piperidin-4-yl)-1-methyl-1H-indole-3-carboxylic Acid], for which, on FXR LBD, GST, the Emax was found to be 161% and it took 0.094 µM to reach a half-maximal effect (EC50). In data set [1], the EC50 came out at 0.577 µM.

`C[C@H]1CN(c2ccc3c(C(=O)O)cn(C)c3c2)CCN1CCc1c(-c2c(Cl)cccc2Cl)noc1C1CC1` [Example I37, (S)-6-(4-(2-(5-cyclopropyl-3-(2,6-dichlorophenyl)isoxazol-4-yl)ethyl)-3-methylpiperazin-1-yl)-1-methyl-1H-indole-3-carboxylic Acid]: the Emax at FXR LBD, GST was determined as 232%. Also, the EC50 turned out to be 0.101 µM on FXR LBD, GST and 0.574 µM in data set [1].

Consider `Cn1cc(C(=O)O)c2ccc(N3CCN(CCc4c(-c5c(Cl)cccc5Cl)noc4C4CC4)C(C)(C)C3)cc21` [Example I38, 6-(4-(2-(5-cyclopropyl-3-(2,6-dichlorophenyl)isoxazol-4-yl)ethyl)-3,3-dimethylpiperazin-1-yl)-1-methyl-1H-indole-3-carboxylic Acid], for which, at FXR LBD, GST, the Emax is 133% and the response was half-maximal at 0.048 µM (EC50). In data set [1], this compound returned an EC50 of 0.377 µM.

For `C[C@@H]1CN(CCc2c(-c3c(Cl)cccc3Cl)noc2C2CC2)CCN1c1ccc2c(C(=O)O)cn(C)c2c1` [Example I40, (R)-6-(4-(2-(5-cyclopropyl-3-(2,6-dichlorophenyl)isoxazol-4-yl)ethyl)-2-methylpiperazin-1-yl)-1-methyl-1H-indole-3-carboxylic Acid], the Emax on FXR LBD, GST is 131%. Moreover, the EC50 at FXR LBD, GST was found to be 0.077 µM; in data set [1] it was 0.343 µM.

Turning to `Cn1cc(C(=O)O)c2cc(F)c(N3CCN(CCc4c(-c5c(Cl)cccc5Cl)noc4C4CC4)CC3)cc21` [Example I42, 6-(4-(2-(5-cyclopropyl-3-(2,6-dichlorophenyl)isoxazol-4-yl)ethyl)piperazin-1-yl)-5-fluoro-1-methyl-1H-indole-3-carboxylic Acid], on FXR LBD, GST, the “Pct Effect (Emax %)” value worked out at 196.20% and the EC50 was 0.099 µM. In data set [1], this compound showed a half-maximal effective concentration (EC50) of 0.551 µM.

Turning to `Cn1cc(C(=O)O)c2cc(F)c(N3CCN(CCc4c(-c5c(Cl)cccc5Cl)noc4C4CC4)CC3)cc21` [Example I45, 6-(4-(2-(5-cyclopropyl-3-(2,6-dichlorophenyl)isoxazol-4-yl)ethyl)piperazin-1-yl)-5-fluoro-1-methyl-1H-indole-3-carboxylic Acid], on FXR LBD, GST, the “Pct Effect (Emax %)” value was 161.70% and the midpoint of the response, the EC50, lay at 0.072 µM. In data set [1], this compound yielded a 50% effective concentration (EC50) of 0.224 µM.

Turning to `CN(Cc1c(-c2c(Cl)cccc2Cl)noc1C1CC1)C1CCN(c2ccc3c(C(=O)O)cn(C)c3c2)CC1` [Example I58, 6-(4-(((5-cyclopropyl-3-(2,6-dichlorophenyl)isoxazol-4-yl)methyl)(methyl)amino)piperidin-1-yl)-1-methyl-1H-indole-3-carboxylic Acid], on FXR LBD, GST, the Emax came out at 83.4% and the EC50 is 0.497 µM. Also, in data set [1], a half-maximal effect (EC50) was put at 2.27 µM.

Consider `CC(C)c1onc(-c2c(Cl)cccc2Cl)c1COc1ccc(/C=C/c2cccc(C(=O)O)c2)c(Cl)c1` [GW4604], for which the “agonistic activity to FXR” value on FXR is “strong agonistic activity”. The bioavailability result in data set [2] is listed as “low bioavailability”.

On to `O=C(O)c1cc(F)c2nc(N3[C@@H]4CC[C@H]3C[C@@H](OCc3c(-c5ccccc5OC(F)(F)F)noc3C3CC3)C4)sc2c1` [LJN452], for which the drug-related pruritus result in data set [3] (after multiple doses) was “No drug-related pruritus was observed”. Further, the ALT/AST result in data set [3] (individual subjects) is on record as “ALT/AST increased in individual subjects”. Besides, in data set [3] (single dose of up to 3 mg), the drug-related adverse reactions entry is recorded as “No drug-related adverse reactions were observed”; the safety and tolerability entry was “performed well in safety and tolerability”.

On to `Cn1cc(C(=O)O)c2ccc(N3CCC(OCc4c(-c5c(Cl)cccc5Cl)noc4C4CC4)CC3)cc21` [LY-2562175], for which, in the data set on other nuclear receptor, the “transcriptional activation of other nuclear receptor” value was “didn't promote transcriptional activation of other nuclear receptor”. In addition, the “effect on LDL, triglycerides and HDL” value in data set [4] is “lowered LDL and triglycerides while raising HDL”.

As for `CC[C@H]1[C@@H](O)[C@@H]2[C@H](CC[C@]3(C)[C@@H]([C@H](C)CCC(=O)O)CC[C@@H]23)[C@@]2(C)CC[C@@H](O)C[C@@H]12` [OCA, 6α-ethyl-chenodeoxycholic acid], in data set [5], the pruritus result was “may be associated with increased pruritus”.
